{"source": "patent US20240425480A1", "about": "“NOVEL PYRIDINE DERIVATIVE COMPOUND AS RON INHIBITOR” (LG CHEM, LTD., priority 2021, published 2024)", "key": {"RON": {"molecular_target": "RON (Homo sapiens, UniProt Q04912)", "sequence (Q04912 25-1400, species assumed)": "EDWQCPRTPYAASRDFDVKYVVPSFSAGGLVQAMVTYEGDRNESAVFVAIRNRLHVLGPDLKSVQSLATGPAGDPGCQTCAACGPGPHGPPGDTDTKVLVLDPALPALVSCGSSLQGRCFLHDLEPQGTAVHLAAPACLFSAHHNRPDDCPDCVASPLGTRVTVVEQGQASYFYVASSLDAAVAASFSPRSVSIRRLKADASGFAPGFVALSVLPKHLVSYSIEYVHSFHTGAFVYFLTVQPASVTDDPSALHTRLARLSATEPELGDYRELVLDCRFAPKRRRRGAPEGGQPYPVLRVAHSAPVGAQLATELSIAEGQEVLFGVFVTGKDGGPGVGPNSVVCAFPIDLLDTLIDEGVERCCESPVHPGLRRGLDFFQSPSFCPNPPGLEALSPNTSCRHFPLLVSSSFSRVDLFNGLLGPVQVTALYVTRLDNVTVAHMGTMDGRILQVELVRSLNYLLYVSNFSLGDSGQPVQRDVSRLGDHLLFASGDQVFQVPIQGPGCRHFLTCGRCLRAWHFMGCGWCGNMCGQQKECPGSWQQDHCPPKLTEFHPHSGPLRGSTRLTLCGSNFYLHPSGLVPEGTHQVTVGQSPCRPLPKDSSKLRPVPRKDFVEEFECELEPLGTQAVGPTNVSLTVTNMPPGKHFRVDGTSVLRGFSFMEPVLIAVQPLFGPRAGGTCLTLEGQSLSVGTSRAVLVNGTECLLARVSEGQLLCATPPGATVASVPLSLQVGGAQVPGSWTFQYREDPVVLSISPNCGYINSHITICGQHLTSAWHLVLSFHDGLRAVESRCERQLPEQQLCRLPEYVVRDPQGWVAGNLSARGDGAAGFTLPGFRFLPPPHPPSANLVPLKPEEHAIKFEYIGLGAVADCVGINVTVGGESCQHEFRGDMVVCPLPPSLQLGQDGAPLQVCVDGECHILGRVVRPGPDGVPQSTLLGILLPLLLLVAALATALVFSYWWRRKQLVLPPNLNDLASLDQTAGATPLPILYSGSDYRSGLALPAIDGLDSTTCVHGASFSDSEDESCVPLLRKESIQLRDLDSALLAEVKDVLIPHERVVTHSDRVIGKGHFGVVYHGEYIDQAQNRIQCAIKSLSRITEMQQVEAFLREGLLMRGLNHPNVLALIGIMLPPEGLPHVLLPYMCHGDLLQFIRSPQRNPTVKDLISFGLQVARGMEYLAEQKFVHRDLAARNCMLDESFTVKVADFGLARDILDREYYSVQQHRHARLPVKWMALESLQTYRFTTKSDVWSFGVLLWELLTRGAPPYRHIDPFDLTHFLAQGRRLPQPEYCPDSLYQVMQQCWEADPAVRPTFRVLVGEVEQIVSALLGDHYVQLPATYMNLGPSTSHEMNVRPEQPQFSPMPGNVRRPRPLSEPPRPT", "experiment": "Inhibitory activity against RON, TR-FRET kinase assay", "format": "biochemical", "settings": "TR-FRET enzyme assay", "method": "In order to measure the inhibitory activity of each of the compounds of Examples against RON, the IC50 of each of the compounds was measured using Time-resolved fluorescence energy transfer (TR-FRET).\n(§1) Specifically, the compound was prepared to a concentration of 1 mM in 100% DMSO and was diluted 10 times in a stepwise manner through 3-fold dilution. The compound (2 ul) diluted in a stepwise manner was added to a 96-well-plate containing 48 ul of a 1× kinase reaction buffer (50 mM HEPES (pH 7.4), 0.01% Tween-20, 5 mM DTT, 0.5 mM Na3VO4, 2 mM EGTA, 10 mM MgCl2).\nThe RON protein was diluted to a concentration of 49.3 nM in a RON storage buffer (50 mM Tris-HCl (pH 7.5), 150 mM NaCl, 0.5 mM EDTA, 0.02% Triton X-100), and then diluted again to a concentration of 0.4 nM in a 1×kinase reaction buffer. As a substrate cocktail, a RON-specific substrate mixed solution (40 uM ULight-labeled Poly GT, 100 nM ATP) was prepared at a concentration 2 times the final reaction concentration.\n(§2) Thereafter, a 384-well-plate was prepared, and 2.5 μl of each of the diluted compounds of Examples was added to a corresponding well of experimental group wells, and 2.5 μl of a 4% DMSO solution was dispensed into high control wells and low control wells.\n(§3) Thereafter, 2.5 μL of 0.4 nM RON was dispensed into each of the high control wells and the experimental group wells, and 2.5 μL of the 1× kinase reaction buffer was added to the low control wells, and all the wells were centrifuged at room temperature for 40 seconds at 1,000 RPM, and then incubated at room temperature for 20-30 minutes. Then, 5 μL of the substrate cocktail (2×) was dispensed into each well, and all the wells were centrifuged at room temperature for 40 seconds at 1,000 RPM, and then incubated at room temperature for 60 minutes. Thereafter, 5 μL of 30 mM EDTA was added to each well to terminate the reaction, and all the wells were then incubated again at room temperature for 5 minutes. Thereafter, 5 μL of a 4×phosphotyrosine antibody (Perkin Elmer) containing europium was added to each well, and all the wells were then incubated at room temperature for 60 minutes. After the incubation, the 384-well-plate was read with the Vison plate reader. In this case, the excitation wavelength was 340 nm, and the emission wavelength was 620 nm and 665 nm. The IC50 value of each compound of Examples was derived using the GraphPd Prism7 program."}, "cMET": {"molecular_target": "cMET (Homo sapiens, UniProt P08581)", "sequence (P08581 25-1390)": "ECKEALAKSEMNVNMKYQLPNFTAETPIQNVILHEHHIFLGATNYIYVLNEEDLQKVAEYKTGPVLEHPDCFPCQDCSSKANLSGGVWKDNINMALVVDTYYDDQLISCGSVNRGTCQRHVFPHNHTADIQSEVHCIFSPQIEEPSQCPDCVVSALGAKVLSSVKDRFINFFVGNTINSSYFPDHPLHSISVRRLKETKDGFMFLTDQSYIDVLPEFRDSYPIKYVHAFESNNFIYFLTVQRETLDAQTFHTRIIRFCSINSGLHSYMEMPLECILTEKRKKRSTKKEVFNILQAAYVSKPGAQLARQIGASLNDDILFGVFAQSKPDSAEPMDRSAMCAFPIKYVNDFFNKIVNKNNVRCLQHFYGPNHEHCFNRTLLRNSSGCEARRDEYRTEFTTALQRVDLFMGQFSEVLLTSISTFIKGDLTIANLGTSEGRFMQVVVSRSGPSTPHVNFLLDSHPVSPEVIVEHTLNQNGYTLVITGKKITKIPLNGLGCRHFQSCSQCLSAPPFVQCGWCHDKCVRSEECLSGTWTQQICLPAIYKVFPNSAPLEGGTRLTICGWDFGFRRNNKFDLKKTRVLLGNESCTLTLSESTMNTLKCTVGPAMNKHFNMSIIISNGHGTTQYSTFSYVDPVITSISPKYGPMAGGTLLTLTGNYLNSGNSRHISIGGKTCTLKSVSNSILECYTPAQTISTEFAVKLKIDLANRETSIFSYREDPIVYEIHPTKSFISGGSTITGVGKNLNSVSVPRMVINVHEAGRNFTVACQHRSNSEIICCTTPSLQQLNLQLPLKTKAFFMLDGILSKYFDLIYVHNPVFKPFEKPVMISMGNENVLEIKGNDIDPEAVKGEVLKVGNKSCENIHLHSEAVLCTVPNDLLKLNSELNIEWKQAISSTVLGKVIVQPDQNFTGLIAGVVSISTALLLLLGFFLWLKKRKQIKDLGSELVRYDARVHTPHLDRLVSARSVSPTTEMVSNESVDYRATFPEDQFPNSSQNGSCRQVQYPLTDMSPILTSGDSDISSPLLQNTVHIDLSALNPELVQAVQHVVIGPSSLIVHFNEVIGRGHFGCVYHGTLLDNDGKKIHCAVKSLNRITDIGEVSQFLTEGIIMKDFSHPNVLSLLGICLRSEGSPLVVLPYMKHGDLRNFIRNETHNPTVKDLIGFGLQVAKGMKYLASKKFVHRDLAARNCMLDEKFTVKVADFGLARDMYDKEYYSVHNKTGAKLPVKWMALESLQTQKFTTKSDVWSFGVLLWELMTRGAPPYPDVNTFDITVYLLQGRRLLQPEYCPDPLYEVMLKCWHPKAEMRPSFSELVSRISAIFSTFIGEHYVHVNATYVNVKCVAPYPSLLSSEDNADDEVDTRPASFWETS", "experiment": "Inhibitory activity against MET (cMET), TR-FRET kinase assay", "format": "biochemical", "settings": "TR-FRET enzyme assay", "method": "In addition, in order to measure the enzyme activity inhibition for cMET, the evaluation was performed in the same manner as the enzyme activity inhibition measurement experiment for RON.\nas §1, with “a 1×kinase” for “a 1× kinase”, “7.4), 0.05% BSA, 0.005%” for “7.4), 0.01%”, “Tween-20, 1” for “Tween-20, 5”, “mM MnCl2, 20” for “mM Na3VO4, 2 mM EGTA, 10”\nThe cMET protein was diluted to a concentration of 263 nM in a cMET storage buffer (50 mM Tris-HCl (pH 7.5), 150 mM NaCl, 0.05% Brij35, 1 mM DTT, 10% Glycerol), and then diluted again to a concentration of 2 nM in a 1×kinase reaction buffer. As a substrate cocktail, a MET-specific substrate mixed solution (5 uM TK peptide, 10 mM ATP) was prepared at a concentration 2 times the final reaction concentration.\nas §2\nas §3, with “of 2” for “of 0.4”, “nM cMET” for “nM RON”, “of 90” for “of 30”, “The […]” for “The IC50”"}}, "data": [{"compound": "Nc1nccc(Oc2ccc(NC(=O)c3cnn(-c4ncccn4)c3C(F)(F)F)cc2F)c1Cl", "note": "[Example 21, N-(4-((2-amino-3-chloropyridin-4-yl)oxy)-3-fluorophenyl)-1-(pyrimidin-2-yl)-5-(trifluoromethyl)-1H-pyrazole-4-carboxamide]", "values": [{"measurement": "IC50", "setting": "RON", "result": "< 0.05", "unit": "µM"}, {"measurement": "IC50", "setting": "cMET", "result": "> 5", "unit": "µM"}]}, {"compound": "Nc1nccc(Oc2ccc(NC(=O)c3cnn(-c4ccncn4)c3C(F)(F)F)cc2F)c1Cl", "note": "[Example 22, N-(4-((2-amino-3-chloropyridin-4-yl)oxy)-3-fluorophenyl)-1-(pyrimidin-4-yl)-5-(trifluoromethyl)-1H-pyrazole-4-carboxamide]", "values": [{"measurement": "IC50", "setting": "RON", "result": "0.05 to 0.5", "unit": "µM"}, {"measurement": "IC50", "setting": "cMET", "result": "> 5", "unit": "µM"}]}, {"compound": "Cc1ccnc(-n2ncc(C(=O)Nc3ccc(Oc4ccnc(N)c4Cl)c(F)c3)c2C(F)(F)F)n1", "note": "[Example 23, N-(4-((2-amino-3-chloropyridin-4-yl)oxy)-3-fluorophenyl)-1-(4-methylpyrimidin-2-yl)-5-(trifluoromethyl)-1 H-pyrazole-4-carboxamide]", "values": [{"measurement": "IC50", "setting": "RON", "result": "0.05 to 0.5", "unit": "µM"}, {"measurement": "IC50", "setting": "cMET", "result": "> 5", "unit": "µM"}]}, {"compound": "CCOc1cccnc1-n1ncc(C(=O)Nc2ccc(Oc3ccnc(N)c3Cl)c(F)c2)c1C(F)(F)F", "note": "[Example 24, N-(4-((2-amino-3-chloropyridin-4-yl)oxy)-3-fluorophenyl)-1-(3-ethoxypyridin-2-yl)-5-(trifluoromethyl)-1H-pyrazole-4-carboxamide]", "values": [{"measurement": "IC50", "setting": "RON", "result": "0.05 to 0.5", "unit": "µM"}, {"measurement": "IC50", "setting": "cMET", "result": "0.5 to 5", "unit": "µM"}]}, {"compound": "Nc1nccc(Oc2ccc(NC(=O)c3cnn(-c4cc(F)ccn4)c3C(F)(F)F)cc2F)c1Cl", "note": "[Example 25, N-(4-((2-amino-3-chloropyridin-4-yl)oxy)-3-fluorophenyl)-1-(4-fluoropyridin-2-yl)-5-(trifluoromethyl)-1H-pyrazole-4-carboxamide]", "values": [{"measurement": "IC50", "setting": "RON", "result": "< 0.05", "unit": "µM"}, {"measurement": "IC50", "setting": "cMET", "result": "> 5", "unit": "µM"}]}, {"compound": "Nc1nccc(Oc2ccc(NC(=O)c3cnn(-c4ncc(F)cn4)c3C(F)(F)F)cc2F)c1Cl", "note": "[Example 26, N-(4-((2-amino-3-chloropyridin-4-yl)oxy)-3-fluorophenyl)-1-(5-fluoropyrimidin-2-yl)-5-(trifluoromethyl)-1H-pyrazole-4-carboxamide]", "values": [{"measurement": "IC50", "setting": "RON", "result": "0.05 to 0.5", "unit": "µM"}, {"measurement": "IC50", "setting": "cMET", "result": "> 5", "unit": "µM"}]}, {"compound": "Nc1nccc(Oc2ccc(NC(=O)c3cnn(-c4ncc(O)cn4)c3C(F)(F)F)cc2F)c1Cl", "note": "[Example 27, N-(4-((2-amino-3-chloropyridin-4-yl)oxy)-3-fluorophenyl)-1-(5-hydroxypyrimidin-2-yl)-5-(trifluoromethyl)-1H-pyrazole-4-carboxamide]", "values": [{"measurement": "IC50", "setting": "RON", "result": "0.05 to 0.5", "unit": "µM"}, {"measurement": "IC50", "setting": "cMET", "result": "> 5", "unit": "µM"}]}, {"compound": "Nc1nccc(Oc2ccc(NC(=O)c3cnn(-c4ncccc4F)c3C(F)(F)F)cc2F)c1I", "note": "[Example 28, N-(4-((2-amino-3-iodopyridin-4-yl)oxy)-3-fluorophenyl)-1-(3-fluoropyridin-2-yl)-5-(trifluoromethyl)-1H-pyrazole-4-carboxamide]", "values": [{"measurement": "IC50", "setting": "RON", "result": "< 0.05", "unit": "µM"}, {"measurement": "IC50", "setting": "cMET", "result": "0.5 to 5", "unit": "µM"}]}, {"compound": "Nc1nccc(Oc2ccc(NC(=O)c3cnn(-c4ncc(F)cc4F)c3C(F)(F)F)cc2F)c1Cl", "note": "[Example 29, N-(4-((2-amino-3-chloropyridin-4-yl)oxy)-3-fluorophenyl)-1-(3,5-difluoropyridin-2-yl)-5-(trifluoromethyl)-1H-pyrazole-4-carboxamide]", "values": [{"measurement": "IC50", "setting": "RON", "result": "< 0.05", "unit": "µM"}, {"measurement": "IC50", "setting": "cMET", "result": "> 5", "unit": "µM"}]}, {"compound": "Nc1nccc(Oc2ccc(NC(=O)c3cnn(-c4ccc(F)nn4)c3C(F)(F)F)cc2F)c1Cl", "note": "[Example 30, N-(4-((2-amino-3-chloropyridin-4-yl)oxy)-3-fluorophenyl)-1-(6-fluoropyridazin-3-yl)-5-(trifluoromethyl)-1H-pyrazole-4-carboxamide]", "values": [{"measurement": "IC50", "setting": "RON", "result": "0.5 to 5", "unit": "µM"}, {"measurement": "IC50", "setting": "cMET", "result": "> 5", "unit": "µM"}]}, {"compound": "Nc1cc(Oc2ccc(NC(=O)c3cnn(-c4ncccc4F)c3C(F)(F)F)cc2F)ccn1", "note": "[Example 31, N-(4-((2-aminopyridin-4-yl)oxy)-3-fluorophenyl)-1-(3-fluoropyridin-2-yl)-5-(trifluoromethyl)-1H-pyrazole-4-carboxamide]", "values": [{"measurement": "IC50", "setting": "RON", "result": "< 0.05", "unit": "µM"}, {"measurement": "IC50", "setting": "cMET", "result": "> 5", "unit": "µM"}]}, {"compound": "Nc1nccc(Oc2ccc(NC(=O)c3cnn(-c4ncccc4F)c3C(F)(F)F)c(F)c2)c1Cl", "note": "[Example 32, N-(4-((2-amino-3-chloropyridin-4-yl)oxy)-2-fluorophenyl)-1-(3-fluoropyridin-2-yl)-5-(trifluoromethyl)-1H-pyrazole-4-carboxamide]", "values": [{"measurement": "IC50", "setting": "RON", "result": "< 0.05", "unit": "µM"}, {"measurement": "IC50", "setting": "cMET", "result": "0.5 to 5", "unit": "µM"}]}, {"compound": "Nc1nccc(Oc2ccc(NC(=O)c3cnn(-c4ncccc4F)c3C(F)(F)F)cc2F)c1NC1CCCCC1", "note": "[Example 33, N-(4-((2-amino-3-(cyclohexylamino)pyridin-4-yl)oxy)-3-fluorophenyl)-1-(3-fluoropyridin-2-yl)-5-(trifluoromethyl)-1H-pyrazole-4-carboxamide]", "values": [{"measurement": "IC50", "setting": "RON", "result": "0.05 to 0.5", "unit": "µM"}, {"measurement": "IC50", "setting": "cMET", "result": "> 5", "unit": "µM"}]}, {"compound": "CC(C)Nc1c(Oc2ccc(NC(=O)c3cnn(-c4ncccc4F)c3C(F)(F)F)cc2F)ccnc1N", "note": "[Example 34, N-(4-((2-amino-3-(isopropylamino)pyridin-4-yl)oxy)-3-fluorophenyl)-1-(3-fluoropyridin-2-yl)-5-(trifluoromethyl)-1H-pyrazole-4-carboxamide]", "values": [{"measurement": "IC50", "setting": "RON", "result": "< 0.05", "unit": "µM"}, {"measurement": "IC50", "setting": "cMET", "result": "> 5", "unit": "µM"}]}, {"compound": "CCc1c(C(=O)Nc2ccc(Oc3ccnc(N)c3Cl)c(F)c2)cnn1-c1ncccc1F", "note": "[Example 35, N-(4-((2-amino-3-chloropyridin-4-yl)oxy)-3-fluorophenyl)-5-ethyl-1-(3-fluoropyridin-2-yl)-1H-pyrazole-4-carboxamide]", "values": [{"measurement": "IC50", "setting": "RON", "result": "< 0.05", "unit": "µM"}, {"measurement": "IC50", "setting": "cMET", "result": "> 5", "unit": "µM"}]}, {"compound": "CCc1c(C(=O)Nc2ccc(Oc3ccnc(N)c3Cl)c(F)c2)cnn1-c1ncccc1Cl", "note": "[Example 36, N-(4-((2-amino-3-chloropyridin-4-yl)oxy)-3-fluorophenyl)-1-(3-chloropyridin-2-yl)-5-ethyl-1H-pyrazole-4-carboxamide]", "values": [{"measurement": "IC50", "setting": "RON", "result": "0.05 to 0.5", "unit": "µM"}, {"measurement": "IC50", "setting": "cMET", "result": "0.5 to 5", "unit": "µM"}]}, {"compound": "CCc1c(C(=O)Nc2ccc(Oc3ccnc(N)c3I)c(F)c2)cnn1-c1ncccc1F", "note": "[Example 37, N-(4-((2-amino-3-iodopyridin-4-yl)oxy)-3-fluorophenyl)-5-ethyl-1-(3-fluoropyridin-2-yl)-1H-pyrazole-4-carboxamide]", "values": [{"measurement": "IC50", "setting": "RON", "result": "< 0.05", "unit": "µM"}, {"measurement": "IC50", "setting": "cMET", "result": "0.5 to 5", "unit": "µM"}]}, {"compound": "CCc1c(C(=O)Nc2ccc(Oc3ccnc(N)c3I)c(F)c2)cnn1-c1ncccc1Cl", "note": "[Example 38, N-(4-((2-amino-3-iodopyridin-4-yl)oxy)-3-fluorophenyl)-1-(3-chloropyridin-2-yl)-5-ethyl-1H-pyrazole-4-carboxamide]", "values": [{"measurement": "IC50", "setting": "RON", "result": "< 0.05", "unit": "µM"}, {"measurement": "IC50", "setting": "cMET", "result": "0.5 to 5", "unit": "µM"}]}, {"compound": "Cn1cc(-n2ncc(C(=O)Nc3ccc(Oc4ccnc(N)c4Cl)c(F)c3)c2C(F)(F)F)cn1", "note": "[Example 39, N-(4-((2-amino-3-chloropyridin-4-yl)oxy)-3-fluorophenyl)-1′-methyl-5-(trifluoromethyl)-1′H-[1,4′-bipyrazole]-4-carboxamide]", "values": [{"measurement": "IC50", "setting": "RON", "result": "0.05 to 0.5", "unit": "µM"}, {"measurement": "IC50", "setting": "cMET", "result": "> 5", "unit": "µM"}]}, {"compound": "Cc1csc(-n2ncc(C(=O)Nc3ccc(Oc4ccnc(N)c4Cl)c(F)c3)c2C(F)(F)F)n1", "note": "[Example 40, N-(4-((2-amino-3-chloropyridin-4-yl)oxy)-3-fluorophenyl)-1-(4-methylthiazol-2-yl)-5-(trifluoromethyl)-1H-pyrazole-4-carboxamide]", "values": [{"measurement": "IC50", "setting": "RON", "result": "0.05 to 0.5", "unit": "µM"}, {"measurement": "IC50", "setting": "cMET", "result": "> 5", "unit": "µM"}]}]}
